Measured values reported in patent publication EP4786451A1, “COMPOUND TARGETING INTEGRIN AND USE THEREOF IN RNAI AGENT” (YUN HO BIO CO., LTD, priority 2023, dated 2025).
Values joined by “and” are separate entries in the source; they are usually repeats but may differ in a detail not shown here. Identical values can stand only once. Like-named read-outs stand apart in the source and are kept apart here.

Experiments:
Integrin αvβ6 Receptor [1] = target: T1, Integrin αvβ6 Receptor (Homo sapiens, UniProt P06756+P18564); assay: HTRF binding activity to integrin αvβ6 receptor (competition with LAP (TGF-beta 1)); conditions: Integrin αvβ6, HTRF; for Hillslope: fit parameter of the inhibition curve; for Max: maximum of the inhibition curve; for Min: minimum of the inhibition curve; for IC50: read-out: IC50
Protocol: Main Experimental Reagents and Consumables
Inhibition rate and fit IC50 was calculated using Excel and XL-Fit respectively, formula as follows: Inhibition % = (Max−Signal)/(Max−Min)*100 [formula] Y = Bottom + (Top−Bottom)/(1+(IC50/X)[…]), [formula] Y and X represent %inhibition and compound concentration respectively

Integrin αvβ6 Receptor [2] = target: T1, Integrin αvβ6 Receptor; assay: as above; conditions: for Hillslope: fit parameter of the inhibition curve; for Emax: maximum of the inhibition curve, read-out: Max; for IC50: table of 5FAM-labelled compounds
Protocol: Reagent Preparation: Assay buffer was prepared.

[3] = table of 5FAM-labelled compounds
[4] = Table 3, several runs, each with Cilengitide and 1 as references

T1 sequence (P06756 31-992 limits assumed): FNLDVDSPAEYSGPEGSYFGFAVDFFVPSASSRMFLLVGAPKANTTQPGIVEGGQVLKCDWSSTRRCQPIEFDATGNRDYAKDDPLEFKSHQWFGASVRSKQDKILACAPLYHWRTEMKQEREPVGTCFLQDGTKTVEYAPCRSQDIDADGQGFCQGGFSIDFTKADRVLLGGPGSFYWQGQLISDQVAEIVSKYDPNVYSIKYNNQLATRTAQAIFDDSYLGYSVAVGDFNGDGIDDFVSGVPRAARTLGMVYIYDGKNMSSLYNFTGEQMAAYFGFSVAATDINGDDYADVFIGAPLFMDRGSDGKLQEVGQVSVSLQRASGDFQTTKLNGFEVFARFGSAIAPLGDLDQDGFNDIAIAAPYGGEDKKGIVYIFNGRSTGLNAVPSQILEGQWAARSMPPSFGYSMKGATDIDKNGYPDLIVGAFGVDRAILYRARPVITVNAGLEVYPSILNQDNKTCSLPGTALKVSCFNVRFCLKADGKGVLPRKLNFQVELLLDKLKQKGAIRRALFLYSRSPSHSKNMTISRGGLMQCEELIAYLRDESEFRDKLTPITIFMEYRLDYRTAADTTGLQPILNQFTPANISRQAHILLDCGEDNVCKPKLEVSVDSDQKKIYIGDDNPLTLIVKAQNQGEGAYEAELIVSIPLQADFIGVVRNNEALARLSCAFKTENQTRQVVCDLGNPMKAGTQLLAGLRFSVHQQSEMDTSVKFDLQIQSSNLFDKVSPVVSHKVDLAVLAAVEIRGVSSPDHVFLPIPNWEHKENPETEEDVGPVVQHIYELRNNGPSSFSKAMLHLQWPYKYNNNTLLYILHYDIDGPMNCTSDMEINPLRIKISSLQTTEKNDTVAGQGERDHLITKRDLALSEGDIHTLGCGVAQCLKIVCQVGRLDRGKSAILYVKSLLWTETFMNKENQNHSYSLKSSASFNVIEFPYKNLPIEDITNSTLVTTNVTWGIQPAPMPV
T1 sequence (P18564 22-707 limits assumed): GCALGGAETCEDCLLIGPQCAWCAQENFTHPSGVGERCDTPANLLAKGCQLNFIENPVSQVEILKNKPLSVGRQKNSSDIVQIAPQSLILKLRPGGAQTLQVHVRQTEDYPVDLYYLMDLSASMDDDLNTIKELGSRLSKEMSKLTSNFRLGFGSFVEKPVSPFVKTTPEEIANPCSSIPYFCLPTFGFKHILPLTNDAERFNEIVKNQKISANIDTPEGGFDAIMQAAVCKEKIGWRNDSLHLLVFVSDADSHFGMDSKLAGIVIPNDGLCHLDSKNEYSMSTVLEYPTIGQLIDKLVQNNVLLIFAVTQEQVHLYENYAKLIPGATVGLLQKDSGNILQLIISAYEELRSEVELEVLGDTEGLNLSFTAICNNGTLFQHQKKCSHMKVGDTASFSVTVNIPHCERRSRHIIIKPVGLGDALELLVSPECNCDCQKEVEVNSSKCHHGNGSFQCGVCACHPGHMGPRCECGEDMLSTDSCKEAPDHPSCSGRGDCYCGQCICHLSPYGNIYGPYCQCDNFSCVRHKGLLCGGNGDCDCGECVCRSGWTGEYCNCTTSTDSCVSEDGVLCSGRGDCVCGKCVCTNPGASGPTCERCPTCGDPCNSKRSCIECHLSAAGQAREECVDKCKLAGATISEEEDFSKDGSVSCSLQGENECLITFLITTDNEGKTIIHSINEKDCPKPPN

With [N-]=[N+]=NCCOCCOCCOCCOCCOc1ccc(-c2ccc([C@H](CC(=O)O)NC(=O)CCCCc3ccc4c(n3)NCCC4)cc2)c2ccccc12 [Compound 8] the Hillslope (Integrin αvβ6 Receptor [1]) was 2.5, the Max (Integrin αvβ6 Receptor [1]) was 107.0 and the Min (Integrin αvβ6 Receptor [1]) was -2.0. For the same compound, the IC50 (Integrin αvβ6 Receptor [1]; [3]) was 1.37 nM.

O=C(O)CC(NC(=O)CCCCc1nc2c(cc1CNC(=O)CCOCCOCCOCCOCCNC(=O)c1ccc3c(c1)C(=O)OC31c3ccc(O)cc3Oc3cc(O)ccc31)CCCN2)c1ccc(-c2cccc3ccccc23)cc1 (stereo not drawn) [Compound 9-5FAM] gave a Hillslope (Integrin αvβ6 Receptor [1]) of 2.0, a Max (Integrin αvβ6 Receptor [1]) of 103.1 and a Min (Integrin αvβ6 Receptor [1]) of -2.2. For the same compound, the IC50 (Integrin αvβ6 Receptor [1]; [3]) was 1.48 nM.

For Cc1cc(C)n(-c2cccc(C(CC(=O)O)CN3CCC(CCc4nc5c(cc4CNC(=O)CCOCCOCCOCCOCCN=[N+]=[N-])CCCN5)C3)c2)n1 (stereo not drawn) [Compound 13], the IC50 (Integrin αvβ6 Receptor [1]; [4]) was 2.5 nM and 1.7 nM.

Cc1nn(-c2cccc(C(CC(=O)O)CN3CC[C@@H](CCc4ccc5c(n4)NCCC5)C3)c2)c(C)c1OCCOCCOCCOCCOCCN=[N+]=[N-] (stereo partly drawn) [Compound 14] was tested, and the IC50 (Integrin αvβ6 Receptor [1]; [4]) was 4.9 nM and 2.8 nM.

Cc1nc(C)n(CCOCCOCCOCCOCCN=[N+]=[N-])c1-c1cccc(C(CC(=O)O)CN2CC[C@@H](CCc3ccc4c(n3)NCCC4)C2)c1 (stereo partly drawn) [Compound 15] was tested, and the IC50 (Integrin αvβ6 Receptor [1]; [4]) was 2.5 nM.

O=C(NCc1cn(CCOCCOCCOCCOCCOCCN(CCCCc2ccc3c(n2)NCCC3)CC[C@H](Nc2ncnc3ccccc23)C(=O)O)nn1)c1ccc2c(c1)C(=O)OC21c2ccc(O)cc2Oc2cc(O)ccc21 [Compound 16-5FAM] gave a Hillslope (Integrin αvβ6 Receptor [2]) of 1.4, an Emax (Integrin αvβ6 Receptor [2]) of 101% and an IC50 (Integrin αvβ6 Receptor [2]) of 1.77 nM.

For COCCN(CCCCc1ccc2c(n1)NCCC2)CC[C@H](Nc1ncnc2cc(OCCOCCOCCOCCOCCn3cc(CNC(=O)c4ccc5c(c4)C(=O)OC54c5ccc(O)cc5Oc5cc(O)ccc54)nn3)ccc12)C(=O)O [Compound 17-5FAM], the Hillslope (Integrin αvβ6 Receptor [2]) was 1.5, the Emax (Integrin αvβ6 Receptor [2]) was 98.9% and the IC50 (Integrin αvβ6 Receptor [2]) was 7.99 nM.

Work on [N-]=[N+]=NCCOCCOCCOCCOCCOc1cccc(C(CC(=O)O)CN2CCC(CCc3ccc4c(n3)NCCC4)C2)c1 (stereo not drawn) [Compound 18-P2] yielded an IC50 (Integrin αvβ6 Receptor [1]; [4]) of 13.9 nM.

For [N-]=[N+]=NCCOCCOCCOCCOCCOc1ccc(C(CC(=O)O)CN2CCC(CCc3ccc4c(n3)NCCC4)C2)cc1 (stereo not drawn) [Compound 20-P2], the IC50 (Integrin αvβ6 Receptor [1]; [4]) was 13.4 nM.

[N-]=[N+]=NCCOCCOCCOCCOCCOc1ccc(-c2ccc(C(CC(=O)O)CN3CCC(CCc4ccc5c(n4)NCCC5)C3)cc2)c2ccccc12 (stereo not drawn) [Compound 49] showed an IC50 (Integrin αvβ6 Receptor [1]; [4]) of 3.1 nM.

[N-]=[N+]=NCCOCCOCCOCCOCCOc1ccc(F)c(C(CC(=O)O)CN2CCC(CCc3ccc4c(n3)NCCC4)C2)c1 (stereo not drawn) [Compound 53] was tested, and the IC50 (Integrin αvβ6 Receptor [1]; [4]) was 3.8 nM.

COCCOc1cc(OCCOCCOCCOCCOCCN=[N+]=[N-])cc(C(CC(=O)O)CN2CCC(CCc3ccc4c(n3)NCCC4)C2)c1 (stereo not drawn) [Compound 57] gave an IC50 (Integrin αvβ6 Receptor [1]; [4]) of 3.3 nM.

For [N-]=[N+]=NCCOCCOCCOCCOCCOc1cc(-c2ccccc2)cc(C(CC(=O)O)CN2CCC(CCc3ccc4c(n3)NCCC4)C2)c1 (stereo not drawn) [Compound 59], the IC50 (Integrin αvβ6 Receptor [1]; [4]) was 2.9 nM.

In the case of [N-]=[N+]=NCCOCCOCCOCCOCCOc1cccc2c(-c3ccc(C(CC(=O)O)CN4CCC(CCc5ccc6c(n5)NCCC6)C4)cc3)cccc12 (stereo not drawn) [Compound 71], the IC50 (Integrin αvβ6 Receptor [1]; [4]) is reported as 3 nM.

With [N-]=[N+]=NCCOCCOCCOCCOCCOc1ccc(C(CC(=O)O)CN2CCC(CCc3ccc4c(n3)NCCC4)C2)cc1F (stereo not drawn) [Compound 83] the IC50 (Integrin αvβ6 Receptor [1]; [4]) was 3.7 nM.

Work on [N-]=[N+]=NCCOCCOCCOCCOCCOc1ccc(-c2ccc(C(CC(=O)O)CN3CCC(CCc4ccc5c(n4)NCCC5)C3)cc2)cc1 (stereo not drawn) [Compound 84] yielded an IC50 (Integrin αvβ6 Receptor [1]; [4]) of 3.8 nM.

[N-]=[N+]=NCCOCCOCCOCCOCCOc1cc(C(CC(=O)O)CN2CCC(CCc3ccc4c(n3)NCCC4)C2)ccc1F (stereo not drawn) [Compound 86] showed an IC50 (Integrin αvβ6 Receptor [1]; [4]) of 4.5 nM.
